Structures are written as SMILES.

One assay deals with T1, SOD1^WT (Homo sapiens, UniProt P00441).
T1 construct: The full-length constructs of SOD1-wild type (aa: 1–145); His-tag (cleaved yes); made in house; host or cells: E. coli BL21 DE3
Briefly: Microscale thermophoresis (MST) binding assay, Cys-labeled SOD1^WT. The following applies: PBS buffer, protein 25 nM, PB 30.5 nM to 250 μM, 25 °C, SEM n = 3, read-out: binding affinity Kd. As for the experimental part:
To evaluate the binding efficiency of the ligand PB with SOD1^WT, a quantitative binding assay by microscale thermophoresis (MST) was performed. SOD1^WT was labeled at its cysteine residues to ensure non-interference with lysine-containing binding sites of PB (K9, K122, and K128). The cysteine label targeted free cysteines lying away from the ligand-binding site region. The fluorescently labeled SOD1^WT and 16 different concentrations of PB from 250 μM to 30.5 nM were prepared to evaluate the binding interactions between SOD1^WT and PB, as discussed in the methodology. […] The binding affinity was calculated based on the directional movement of molecules along a temperature gradient and the thermophoretic properties of the protein-ligand molecules.
Fig 4 MST interaction analysis of fluorescently labeled SOD1^WT against PB. The binding of PB to fluorescently Cys-labeled SOD1^WT is quantified in PBS buffer. The concentration of PB varied from 30.5 nM to 250 μM, while the protein SOD1^WT was kept constant at 25 nM. MST experiments were conducted at 20% LED excitation and medium MST power at 25 °C. […] Error bars indicate the standard error of the mean, SEM (n = 3).
(§1) Binding studies were performed for SOD1^WT and the ligands using microscale thermophoresis (MST). […]
A general note: In MST a laser heats a spot of the sample, and binding alters the fluorescence response.

The target of the next assay is T2, SOD1^L42R (Homo sapiens, UniProt P00441, L43R).
T2 construct: His-tag (cleaved yes); made in house; host or cells: E. coli BL21-DE3
T2 sequence (P00441 whole entry L43R): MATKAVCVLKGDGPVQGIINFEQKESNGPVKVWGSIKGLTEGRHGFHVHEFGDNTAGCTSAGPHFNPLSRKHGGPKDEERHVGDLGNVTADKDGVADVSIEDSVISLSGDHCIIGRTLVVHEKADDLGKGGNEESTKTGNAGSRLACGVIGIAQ
The assay is described as follows: MST binding assay, site-specific mutant SOD1^L42R. The following applies: PBS buffer, mutant 25 nM, PB 30.5 nM to 250 μM, 25 °C, SEM n = 3, read-out: binding affinity Kd. On the procedure: To further validate the binding of PB to SOD1, site-directed mutagenesis was performed for the interacting residues at the binding sites of PB. The point mutations generated on the SOD1 protein are K9F, G10P, L42R, and A123F. The MST assay was carried out on these mutants against PB (Fig 5). The dose-response curve with the highest signal-to-noise ratio, high response amplitude, and lowest error rate was selected for measuring the binding affinity (Kd) value. […] Binding at the electrostatic loop is affected majorly by mutating residues at A123 to phenylalanine and L42 to arginine. […] Taken together, the binding affinities of these mutants confirm the ligand bindings at these sites of SOD1 are specific.
Fig 5 MST interaction analysis of fluorescently labeled SOD1 mutants against PB. The binding of PB to fluorescently Cys-labeled SOD1- variants is quantified in PBS buffer. The concentration of PB varied from 30.5 nM to 250 μM, while the respective mutants were kept constant at 25 nM. MST experiments were conducted at 20% LED excitation and medium MST power at 25 °C. […] Error bars indicate the standard error of the mean, SEM (n = 3). […] The ligand PB is printed only in the titles of panels a-d, so the mutant names are used as the substance labels.
as §1

T1 sequence (P00441 whole entry): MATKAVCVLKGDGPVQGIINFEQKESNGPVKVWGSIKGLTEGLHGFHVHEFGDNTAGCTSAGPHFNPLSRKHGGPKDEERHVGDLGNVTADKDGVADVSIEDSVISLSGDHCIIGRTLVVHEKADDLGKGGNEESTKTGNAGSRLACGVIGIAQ

One may read the Kd as the concentration at which binding is half-saturated. On to `CCCC[C@H](C)/C=C(C)/C=C/C(=O)O` [PB, (S, 2E, 4E)-4,6-dimethyldeca-2,4-dienoic acid], for which the dissociation constant Kd on SOD1^WT was 3.7 ± 1.2 µM; on SOD1^L42R, 225 ± 4.29 µM.
